Measured values as given in ChEMBL document CHEMBL1137905, “Synthesis of anilino-monoindolylmaleimides as potent and selective PKCbeta inhibitors” (Bioorg Med Chem Lett, 2004).

How the values were obtained:
[1] = molecular target: T1, Protein kinase C epsilon type (Homo sapiens, UniProt Q02156); test: Inhibitory concentration against recombinant human Protein kinase C epsilon
T1 sequence (Q02156 whole entry): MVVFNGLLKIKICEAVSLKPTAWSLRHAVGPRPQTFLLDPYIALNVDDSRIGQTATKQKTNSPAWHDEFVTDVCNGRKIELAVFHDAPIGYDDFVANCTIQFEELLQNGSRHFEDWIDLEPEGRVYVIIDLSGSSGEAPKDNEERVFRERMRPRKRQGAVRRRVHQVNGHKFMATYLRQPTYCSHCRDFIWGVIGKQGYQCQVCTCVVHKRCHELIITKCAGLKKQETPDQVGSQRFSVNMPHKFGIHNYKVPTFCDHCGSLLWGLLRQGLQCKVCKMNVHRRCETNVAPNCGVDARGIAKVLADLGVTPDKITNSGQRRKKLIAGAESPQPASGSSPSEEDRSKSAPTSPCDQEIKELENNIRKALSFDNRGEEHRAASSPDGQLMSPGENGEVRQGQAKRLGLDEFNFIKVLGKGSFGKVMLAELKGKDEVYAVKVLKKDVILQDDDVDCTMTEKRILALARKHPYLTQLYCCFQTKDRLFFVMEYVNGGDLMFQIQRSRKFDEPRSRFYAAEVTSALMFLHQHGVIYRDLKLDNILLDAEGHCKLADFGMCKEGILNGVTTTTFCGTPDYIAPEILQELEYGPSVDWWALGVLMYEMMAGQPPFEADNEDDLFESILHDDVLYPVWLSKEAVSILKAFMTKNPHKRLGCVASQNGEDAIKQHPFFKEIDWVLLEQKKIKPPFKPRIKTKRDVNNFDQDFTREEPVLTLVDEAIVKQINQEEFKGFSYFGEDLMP

[2] = molecular target: T2, Protein kinase C beta type (Homo sapiens, UniProt P05771); test: Inhibitory concentration against recombinant human Protein kinase C beta 2
T2 sequence (P05771 whole entry): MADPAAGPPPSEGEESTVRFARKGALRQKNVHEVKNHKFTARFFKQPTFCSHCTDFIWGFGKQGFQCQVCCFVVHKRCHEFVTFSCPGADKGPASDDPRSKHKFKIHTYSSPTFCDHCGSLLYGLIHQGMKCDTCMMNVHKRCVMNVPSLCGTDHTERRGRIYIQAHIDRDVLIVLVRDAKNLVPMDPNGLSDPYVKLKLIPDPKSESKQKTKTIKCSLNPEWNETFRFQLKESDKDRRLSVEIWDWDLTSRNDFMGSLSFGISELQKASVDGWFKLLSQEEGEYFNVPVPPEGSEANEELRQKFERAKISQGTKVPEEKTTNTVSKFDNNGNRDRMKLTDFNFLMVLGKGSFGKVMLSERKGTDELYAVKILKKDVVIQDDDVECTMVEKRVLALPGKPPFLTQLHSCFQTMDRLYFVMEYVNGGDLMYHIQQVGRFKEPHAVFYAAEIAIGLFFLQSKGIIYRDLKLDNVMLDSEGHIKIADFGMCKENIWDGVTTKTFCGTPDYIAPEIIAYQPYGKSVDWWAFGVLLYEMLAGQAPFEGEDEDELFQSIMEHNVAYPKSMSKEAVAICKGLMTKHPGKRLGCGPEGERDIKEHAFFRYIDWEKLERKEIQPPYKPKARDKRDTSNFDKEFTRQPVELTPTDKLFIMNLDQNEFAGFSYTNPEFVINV

[3] = molecular target: T2, Protein kinase C beta type; test: Inhibitory concentration against recombinant human Protein kinase C beta 1
[4] = molecular target: Protein kinase C alpha type (Homo sapiens, UniProt P17252); test: Inhibitory concentration against recombinant human Protein kinase C alpha

| SMILES | IC50 [1] | IC50 [2] | also measured |
| --- | --- | --- | --- |
| CN(C)CCn1cc(C2=C(Nc3ccccc3)C(=O)NC2=O)c2ccccc21 | > 10000 nM | – | – |
| CN(C)CCCn1cc(C2=C(Nc3ccccc3)C(=O)NC2=O)c2ccccc21 | 3460 nM | – | – |
| CN1CCN(CCCn2cc(C3=C(Nc4ccccc4)C(=O)NC3=O)c3ccccc32)CC1 | > 10000 nM | – | – |
| O=C1NC(=O)C(c2cn(CCCN3CCCC3)c3ccccc23)=C1Nc1ccccc1 | > 10000 nM | – | – |
| CN(C1=C(c2c[nH]c3ccccc23)C(=O)NC1=O)c1ccccc1 | – | 939 nM | – |
| O=C1NC(=O)C(c2c[nH]c3ccccc23)=C1Nc1ccccc1 | > 10000 nM | – | IC50 [3]: 395 nM |
| Cc1ccccc1NC1=C(c2c[nH]c3ccccc23)C(=O)NC1=O | – | 2150 nM | – |
| N=C(N)SCCCn1cc(C2=C(Nc3ccccc3)C(=O)NC2=O)c2ccccc21 | 58 nM | – | – |
| O=C1NC(=O)C(c2c[nH]c3ccccc23)=C1Nc1cccc(C(F)(F)F)c1 | – | 1450 nM | – |
| Cc1ccc(NC2=C(c3c[nH]c4ccccc34)C(=O)NC2=O)cc1 | – | 480 nM | – |
| CN(C)CCCn1cc(C2=C(Nc3cccc(Cl)c3)C(=O)NC2=O)c2ccccc21 | 2610 nM | – | – |
| COc1cccc(NC2=C(c3c[nH]c4ccccc34)C(=O)NC2=O)c1 | – | 747 nM | – |
| Cc1cccc(NC2=C(c3cn(CCCN(C)C)c4ccccc34)C(=O)NC2=O)c1 | 3460 nM | – | – |
| O=C1NC(=O)C(c2cn(CCCN3CCCCC3)c3ccccc23)=C1Nc1ccccc1 | 3420 nM | – | – |
| O=C1NC(=O)C(c2c[nH]c3ccccc23)=C1c1c[nH]c2ccccc12 [RO-316233] | 7520 nM | 212 nM | IC50 [4]: 1600 nM; IC50 [3]: 304 nM |
| O=C1NC(=O)C(c2c[nH]c3ccccc23)=C1NCc1ccccc1 | – | > 10000 nM | – |
| O=C1NC(=O)C(c2cn(CCCn3ccnc3)c3ccccc23)=C1Nc1ccccc1 | 2810 nM | – | IC50 [3]: 21 nM |
| CC(C)c1cccc(NC2=C(c3c[nH]c4ccccc34)C(=O)NC2=O)c1 | – | 2860 nM | – |
| O=C1NC(=O)C(c2c[nH]c3ccccc23)=C1NC1CCCCC1 | – | 2450 nM | – |
| O=C1NC(=O)C(c2cn(CCCO)c3ccccc23)=C1Nc1ccccc1 | 6320 nM | – | – |
| CN(C)CCCCn1cc(C2=C(Nc3ccccc3)C(=O)NC2=O)c2ccccc21 | 5870 nM | – | – |
| CN(C)CCCCCn1cc(C2=C(Nc3ccccc3)C(=O)NC2=O)c2ccccc21 | 3900 nM | 41 nM | IC50 [4]: 2230 nM |
